# Measured values published in US11299457B2, “Chemical compounds” (GlaxoSmithKline Intellectual Property (No. 2) Limited, priority 2012, dated 2022).
# Legend:
# [1] = system: castrated male rat (ORX): levator ani muscle and prostate; test: Castrated male rat model (ORX rat); assay type: in vivo; settings: for prostate sparing: defined as at least a 2:1 ratio of levator ani ED50 to prostate ED50; for levator ani hypertrophy: favorable = 30% or greater increase in levator ani weight vs vehicle-treated castrates, dosed orally at up to 10 mg/kg/day
# Excerpt: Castrated Male Rat Model (ORX Rat)
# The activity of the compounds of the present invention as modulators of the androgen receptor was investigated using a castrated male rat model (ORX) as described in C. D. Kockakian, Pharmac. Therap. B 1(2), 149-177 (1975); C. Tobin and Y. Joubert, Developmental Biology 146, 131-138 (1991); J. Antonio, J. D. Wilson and F. W. George, J Appl. Physiol. 87(6) 2016-2019 (1999)) the disclosures of which herein are included by reference.
# Androgens have been identified as playing important roles in the maintenance and growth of many tissues in both animals and humans. Muscles, like the levator ani and bulbocavernosus, and sexual accessory organs, such as the prostate glands and seminal vesicles have high expression levels of the androgen receptor and are known to respond quickly to exogenous androgen addition or androgen deprivation through testicular ablation. Castration produces dramatic atrophy of muscle and sexual accessory organs; whereas the administration of exogenous androgens to the castrated animal results in effective hypertrophy of these muscles and sexual accessory organs. Although the levator ani muscle, also known as the dorsal bulbocavernosus, is not ‘true skeletal muscle’ and definitely sex-linked, it is reasonable to use this muscle to screen muscle anabolic activities of test compounds because of its androgen responsiveness and simplicity of removal.
# Male Sprague-Dawley rats weighing 160-180 grams were used in the assay. The rats were singly caged upon receiving and throughout the study. Bilateral orchidectomies were performed in sterilized surgical conditions under isoflurane anesthesia. An anteroposterior incision was made in the scrotum. The testicles were exteriorized and the spermatic artery and vas deferens were ligated with 4.0 silk 0.5 cm proximal to the ligation site. The testicles then were removed by a surgical scissors distal to the ligation sites. The tissue stumps were returned to the scrotum, the scrotum and overlying skin were closed by a surgical stapler. The Sham-ORX rats underwent all procedures except ligation and scissors cutting. The rats were assigned randomly into study groups 7-10 days post surgery based on the body weight.
# Dihydrotestosterone (DHT) and the standard SARM, S-22, (J. Pharma. Exper. Thera. Vol 315, p. 230) were used as a positive control (1-10 mg/kg s.c. for DHT and 0.1 to 3 mg/kg p.o. for S-22). Compounds of the current invention were administered subcutaneously or orally for 4-28 days. Alternatively, some compounds of the current invention were administered subcutaneously or orally for 7-49 days. The rats were weighed daily and doses were adjusted accordingly. The general well being of the animal was monitored throughout the course of the study.
# At the end of the study, the rats were euthanized in a CO2 chamber. The ventral prostate glands (VP), seminal vesicles (SV), levator ani muscle (LA) and bulbocavernosus (BC) were carefully dissected. The tissues were blotted dry; the weights were recorded, and then saved for histological and molecular analysis. The VP and SV weights serve as androgenic indicators and LA and BC as anabolic indicators. The ratio of anabolic to androgenic activities was used to evaluate the test compounds. Serum luteinizing hormone (LH), follicle stimulating hormone (FSH) and other potential serum markers of anabolic activities were also analyzed.
# In general, preferred compounds show levator ani hypertrophy and very little prostate stimulation.
# The compounds shown in Examples 9, 20, 26, 27, 33, 51, 52, and 53 were tested in the castrated male rate model essentially as described above. Test compounds were employed in free or salt form. […] Prostate sparing was defined as at least a 2:1 ratio of levator ani ED50 to prostate ED50. The ED50 is defined as 50% of the maximum response above the vehicle treated castrate level. […]
# [2] = target: androgen receptor (MBP-hAR-LBD, rat androgen ligand binding domain) (Rattus norvegicus (Rat), UniProt P15207); test: Androgen receptor fluorescence polarization assay; settings: maximum of curve fit; max/min compared to absence of compound and 10^-5 M control compound
# Chain of androgen receptor (MBP-hAR-LBD, rat androgen ligand binding domain) (P15207 651-882): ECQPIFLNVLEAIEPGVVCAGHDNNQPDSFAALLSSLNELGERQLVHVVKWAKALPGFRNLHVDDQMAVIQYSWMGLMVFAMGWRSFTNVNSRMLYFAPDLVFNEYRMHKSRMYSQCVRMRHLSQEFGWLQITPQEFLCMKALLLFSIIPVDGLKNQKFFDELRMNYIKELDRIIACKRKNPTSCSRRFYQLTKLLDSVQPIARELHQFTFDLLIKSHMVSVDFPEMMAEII
# Description: The androgen receptor fluorescence polarization assay is used to investigate the interaction of the compounds with the androgen receptor.
# Compounds are added to the 384 well black low-volume plates to a final volume of 0.1 μL. DTT and DMSO are added to the chilled assay buffer just before beginning assay. Sufficient Fluormone AL Red and AR-LBD are defrosted on ice and added to the chilled buffer in a glass tube to give a final concentration of 1 nM and 100 nM, (for current batch) respectively. A volume of 10 μL of the assay mix is added to compound plates with a multidrop. […] The plates are counted in a Discovery Analyst with suitable 535 nm excitation and 590 nm emission interference filters (Dichroic 561 nM). […] Test compounds are dissolved and diluted in DMSO. Compounds are assayed in singlicate, a four parameter curve fit of the following form being applied
# [formula] where a is the minimum, b is the Hill slope, c is the IC50 and d is the maximum.
# Data is presented as the mean pIC50 with the standard error of the mean of n experiments.
SMILES,prostate sparing [1],levator ani hypertrophy [1],% Max [2]
"Cc1cc2c(C(F)(F)F)c(C#N)ccc2n1C(C)CS(C)(=O)=O (stereo not shown) [Example 9, 2-Methyl-1-(1-(methylsulfonyl)propan-2-yl)-4-(trifluoromethyl)-1H-indole-5-carbonitrile]",spared the prostate,favorable levator ani hypertrophy,
"C[C@H](n1ccc2c(C(F)(F)F)c(C#N)ccc21)C(C)(C)O [Example 21, (S)-1-(3-Hydroxy-3-methylbutan-2-yl)-4-(trifluoromethyl)-1H-indole-5-carbonitrile]",,,100%
"CC(CS(C)(=O)=O)n1ccc2c(C(F)(F)F)c(C#N)ccc21 (stereo not shown) [Example 26, 1-(1-(Methylsulfonyl)propan-2-yl)-4-(trifluoromethyl)-1H-indole-5-carbonitrile]",spared the prostate,favorable levator ani hypertrophy,
"C[C@H](CS(C)(=O)=O)n1ccc2c(C(F)(F)F)c(C#N)ccc21 [Example 27, (R)-1-(1-(Methylsulfonyl)propan-2-yl)-4-(trifluoromethyl)-1H-indole-5-carbonitrile]",spared the prostate,favorable levator ani hypertrophy,
"CC[C@H](c1cncc(C#N)c1)n1ccc2c(C#N)c(C#N)ccc21 [Example 51, (R)-1-(1-(5-Cyanopyridin-3-yl)propyl)-1H-indole-4,5-dicarbonitrile]",spared the prostate,favorable levator ani hypertrophy,
"C[C@@H](n1ccc2c(Cl)c(C#N)ccc21)[C@](C)(O)C(F)(F)F [Example 52, 4-Chloro-1-((2R,3S)-4,4,4-trifluoro-3-hydroxy-3-methylbutan-2-yl)-1H-indole-5-carbonitrile]",spared the prostate,favorable levator ani hypertrophy,
"C[C@@H](n1ccc2c(C(F)(F)F)c(C#N)ccc21)[C@](C)(O)C(F)(F)F [Example 53, 1-((2R,3S)-4,4,4-Trifluoro-3-hydroxy-3-methylbutan-2-yl)-4-(trifluoromethyl)-1H-indole-5-carbonitrile]",spared the prostate,favorable levator ani hypertrophy,
